The subject of experiment [1] is Escherichia coli strain MC4100 IMP-4213, which harbors an LptD mutation. Conditions: Method B; E. coli MC4100 IMP-4213 (LptD mutation); 35° C., 22 hours. Put shortly:
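Two-fold serial dilutions of compound inoculated at final OD600 0.0005, incubated static at 35 °C for 22 h, and growth read visually.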

The subject of experiment [2] is methicillin resistant Staphylococcus aureus (MRSA) strain USA300 (NRS384). To be noted: Method B, 35° C., 22 hours.
The next experiment deals with S. aureus SPase (Staphylococcus aureus, UniProt P0A070). Nature of the experiment: biochemical.
Sequence of S. aureus SPase (P0A070 whole entry): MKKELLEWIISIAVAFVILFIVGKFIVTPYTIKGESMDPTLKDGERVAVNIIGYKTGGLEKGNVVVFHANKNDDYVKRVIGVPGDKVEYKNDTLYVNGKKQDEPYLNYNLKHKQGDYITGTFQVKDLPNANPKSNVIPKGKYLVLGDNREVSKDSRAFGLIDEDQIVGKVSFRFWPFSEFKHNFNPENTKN
The next experiment deals with E. coli SPase (Escherichia coli, UniProt P00803). Nature of the experiment: Biochemical SPase activity assay (fluorogenic peptide substrate), E. coli enzyme.
Sequence of E. coli SPase (P00803 whole entry): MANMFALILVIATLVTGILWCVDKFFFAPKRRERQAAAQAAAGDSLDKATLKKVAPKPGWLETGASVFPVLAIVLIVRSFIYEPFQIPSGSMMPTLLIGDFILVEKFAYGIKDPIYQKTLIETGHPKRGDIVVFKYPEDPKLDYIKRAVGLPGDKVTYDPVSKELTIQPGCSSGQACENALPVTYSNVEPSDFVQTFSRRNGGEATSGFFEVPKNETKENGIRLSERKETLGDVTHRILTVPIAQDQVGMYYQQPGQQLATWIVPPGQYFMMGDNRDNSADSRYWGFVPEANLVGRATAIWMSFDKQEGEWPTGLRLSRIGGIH

In brackets after ≈: the same amount, converted by molar mass. Square brackets hold non-standard residues; d marks the D form. Peptide text beside a SMILES is read from it. * marks the point of attachment. ξ: configuration not given here. boroAla((+)-pinanediol) = C[C@H](N*)B1O[C@@H]2C[C@@H]3C[C@@H](C3(C)C)[C@]2(C)O1; Biphenylcarbonyl(4'-Bu) = CCCCc1ccc(-c2ccc(C(=O)*)cc2)cc1; X1 = C[C@H](N*)B1OC2C[C@@H]3C[C@@H](C3(C)C)[C@]2(C)O1; Benzoyl(4-(4-Cl-Ph)) = O=C(c1ccc(-c2ccc(Cl)cc2)cc1)*; Benzoyl(4-octyl) = CCCCCCCCc1ccc(C(=O)*)cc1; X15 = CCCCCCN1CCC(c2ccc(C(=O)*)cc2)CC1; Dopa = N[C@@H](Cc1ccc(O)c(O)c1)C(=O)O; X13 = CCCCN1CCC(c2ccc(C(=O)*)cc2)CC1; NMeE = CN[C@@H](CCC(=O)O)C(=O)O; Thr(3ξ) = CC(O)[C@H](N)C(=O)O; NMeV = CN[C@H](C(=O)O)C(C)C; boroAla = C[C@H](N*)B(O)O; Orn = NCCC[C@H](N)C(=O)O; Dab = NCC[C@H](N)C(=O)O; Abu = CC[C@H](N)C(=O)O; Dap = NC[C@H](N)C(=O)O; βAla = NCCC(=O)O

Method for E. coli SPase: Reactions were initiated by the addition of substrate to a final concentration of 20 μM. Reaction progress was monitored by measuring the increase in fluorescence signal (excitation at 314 nm, emission at 416 nm) using a SpectraMax M2 fluorescence microplate reader. […] Three-folder serial dilutions of test compounds, starting at 10 μM, were prepared in enzyme mix solution and incubated at room temperature for 10 minutes. Following this incubation, fluorogenic substrate was added to a final concentration of 20 μM and the increase in fluorescence, corresponding to substrate cleavage, was monitored continuously at room temperature for 1 hour. Initial reaction rates were calculated based on the rate of increase in fluorescence during the reaction. Reaction rates were plotted as a function of compound concentration, and IC50 values are determined nonlinear regression analysis (SoftMaxPro 5.4, Molecular Devices™) of the sigmoidal dose-response curve.

In the case of `CCCCc1ccc(-c2ccc(C(=O)N[C@@H](CCCN)C(=O)N[C@H](C(=O)N[C@@H](C)C(=O)N[C@@H](CCCCN)C(=O)N[C@@H](C)B(O)O)C(C)O)cc2)cc1` (some centres unmarked) [Compound 156] ({Biphenylcarbonyl(4'-Bu)}-[Orn][Thr(3ξ)]AK-boroAla), the “MIC (μg/mL) E. coli” value in experiment [1] is 0.5 µg/mL (≈ 0.676 µM). Moreover, in experiment [2], the “MIC (μg/mL) S. aureus” value worked out at 0.31 µg/mL (≈ 0.419 µM). The IC50 (commonly the midpoint of a concentration-inhibition curve) was 97 nM against S. aureus SPase and 5.5 nM on E. coli SPase.
The matching figures for `CCCCc1ccc(-c2ccc(C(=O)NCCCC[C@H](NC(=O)[C@@H](N)CCN)C(=O)N[C@@H](C)C(=O)N[C@@H](CCCCN)C(=O)N[C@@H](C)B3OC4C[C@@H]5C[C@@H](C5(C)C)[C@]4(C)O3)cc2)cc1` (some centres unmarked) [Compound 278] (H-[Dab]K(Biphenylcarbonyl(4'-Bu))AK-X1): 16 µg/mL (≈ 18 µM), 4 µg/mL (≈ 4.51 µM), 2300 nM and 800 nM.
As for `CCCCc1ccc(-c2ccc(C(=O)NCCC(=O)N[C@@H](CCCCN)C(=O)N[C@@H](CCCCN)C(=O)N[C@@H](C)C(=O)N[C@@H](CC(C)C)C(=O)N[C@@H](C)B3OC4C[C@@H]5C[C@@H](C5(C)C)[C@]4(C)O3)cc2)cc1` (some centres unmarked) [Compound 218] ({Biphenylcarbonyl(4'-Bu)-βAla}-KKAL-X1), the “MIC (μg/mL) E. coli” value in experiment [1] was 1.3 µg/mL (≈ 1.34 µM). For the same compound, in experiment [2], the “MIC (μg/mL) S. aureus” value was determined as 0.5 µg/mL (≈ 0.515 µM). Besides, the IC50 stood at 13 nM at S. aureus SPase and 6.9 nM at E. coli SPase.
For `C[C@H](NC(=O)[C@H](CCCCN)NC(=O)[C@H](C)NC(=O)[C@@H](NC(=O)[C@H](CCN)NC(=O)c1ccc(-c2ccc(C(F)(F)F)cc2)cc1)[C@@H](C)O)B1OC2C[C@@H]3C[C@@H](C3(C)C)[C@]2(C)O1` (some centres unmarked) [Compound 237] the same measures were 2 µg/mL (≈ 2.29 µM), 0.71 µg/mL (≈ 0.814 µM), 210 nM and 16 nM.
Consider `C[C@H](NC(=O)[C@H](CCCCN)NC(=O)[C@H](C)NC(=O)[C@@H](NC(=O)[C@H](CN)NC(=O)c1ccc(-c2ccc(Cl)cc2)cc1)[C@@H](C)O)B1OC2C[C@@H]3C[C@@H](C3(C)C)[C@]2(C)O1` (some centres unmarked) [Compound 167] ({Benzoyl(4-(4-Cl-Ph))}-[Dap]TAK-X1), for which the “MIC (μg/mL) E. coli” value in experiment [1] stood at 4 µg/mL (≈ 4.85 µM). In addition, in experiment [2], the “MIC (μg/mL) S. aureus” value was determined as 1.7 µg/mL (≈ 2.06 µM). Further, the results for the IC50 on S. aureus SPase and on E. coli SPase were 190 nM and 5.2 nM, respectively.
Regarding `CCCCc1ccc(-c2ccc(CNCCC[C@H](NC(C)=O)C(=O)N[C@H](C(=O)N[C@@H](C)C(=O)N[C@@H](CCCCN)C(=O)N[C@@H](C)B3OC4C[C@@H]5C[C@@H](C5(C)C)[C@]4(C)O3)[C@@H](C)O)cc2)cc1` (some centres unmarked) [Compound 275], the “MIC (μg/mL) E. coli” value in experiment [1] amounted to 32 µg/mL (≈ 35.5 µM). In addition, in experiment [2], the “MIC (μg/mL) S. aureus” value was 1 µg/mL (≈ 1.11 µM). Besides, the IC50 on S. aureus SPase was 110 nM; on E. coli SPase, 1500 nM.
Take `CCCCc1ccc(-c2ccc(C(=O)N[C@@H](CCCCN)C(=O)N[C@@H](CCC(=O)O)C(=O)N[C@@H](C)C(=O)N[C@@H](CCCCN)C(=O)N[C@@H](C)B3O[C@@H]4C[C@@H]5C[C@@H](C5(C)C)[C@]4(C)O3)cc2)cc1` [Compound 151] ({Biphenylcarbonyl(4'-Bu)}-KEAK-{boroAla((+)-pinanediol)}): the “MIC (μg/mL) E. coli” value in experiment [1] was 1.2 µg/mL (≈ 1.31 µM). In experiment [2], the “MIC (μg/mL) S. aureus” value was found to be 0.71 µg/mL (≈ 0.775 µM). Further, the values for the IC50 on S. aureus SPase and at E. coli SPase were 38 nM and 8.8 nM, respectively.
For `CCCCc1ccc(-c2ccc(CN[C@@H](CCN)C(=O)N[C@H](C(=O)N[C@@H](C)C(=O)N[C@@H](CCCCN)C(=O)N[C@@H](C)B3OC4C[C@@H]5C[C@@H](C5(C)C)[C@]4(C)O3)[C@@H](C)O)cc2)cc1` (some centres unmarked) [Compound 266] the same measures were 1 µg/mL (≈ 1.18 µM), 0.5 µg/mL (≈ 0.591 µM), 160 nM and 22 nM.
The matching figures for `CCCCc1ccc(-c2ccc(CNCC[C@H](NC(C)=O)C(=O)N[C@H](C(=O)N[C@@H](C)C(=O)N[C@@H](CCCCN)C(=O)N[C@@H](C)B3OC4C[C@@H]5C[C@@H](C5(C)C)[C@]4(C)O3)[C@@H](C)O)cc2)cc1` (some centres unmarked) [Compound 277]: 32 µg/mL (≈ 36 µM), 0.5 µg/mL (≈ 0.563 µM), 110 nM and 680 nM.
The matching figures for `CCCCc1ccc(-c2ccc(C(=O)N[C@H](CO)C(=O)N[C@H](C)C(=O)NCC(=O)N(C)[C@@H](CCC(=O)O)C(=O)N[C@@H](C)C(=O)N[C@@H](CC(N)=O)C(=O)N[C@@H](C)B3OC4C[C@@H]5C[C@@H](C5(C)C)[C@]4(C)O3)cc2)cc1` (some centres unmarked) [Compound 229] ({Biphenylcarbonyl(4'-Bu)}-[dS][dA]G[NMeE]AN-X1): 32 µg/mL (≈ 31.9 µM), 64 µg/mL (≈ 63.8 µM), 220 nM and 290 nM.
With `CCCCc1ccc(-c2ccc(C(=O)NCCC(=O)N[C@@H](CCCCN)C(=O)N[C@H](C(=O)N[C@@H](CC)C(=O)N[C@@H](CC(N)=O)C(=O)N[C@@H](C)B3OC4C[C@@H]5C[C@@H](C5(C)C)[C@]4(C)O3)[C@@H](C)O)cc2)cc1` (some centres unmarked) [Compound 206] ({Biphenylcarbonyl(4'-Bu)-βAla}-KT[Abu]N-X1), the “MIC (μg/mL) E. coli” value in experiment [1] worked out at 2 µg/mL (≈ 2.09 µM). Also, the “MIC (μg/mL) S. aureus” value in experiment [2] turned out to be 0.5 µg/mL (≈ 0.521 µM). The IC50 against S. aureus SPase was 5.2 nM; on E. coli SPase, 6.3 nM.
For `CCCCc1ccc(-c2ccc(C(=O)N[C@@H](CCN)C(=O)N[C@H](C(=O)N[C@@H](C)C(=O)N[C@@H](CCCCN)C(=O)N[C@@H](C)B3OC4C[C@@H]5C[C@@H](C5(C)C)[C@]4(C)O3)[C@@H](C)O)nc2)cc1` (some centres unmarked) [Compound 233] the same measures were 1 µg/mL (≈ 1.16 µM), 0.5 µg/mL (≈ 0.581 µM), 220 nM and 29 nM.
The matching figures for `CCCCCCN1CCC(c2ccc(C(=O)N[C@@H](CCN)C(=O)N[C@H](C(=O)N[C@@H](C)C(=O)N[C@@H](CCCCN)C(=O)N[C@@H](C)B3O[C@@H]4C[C@@H]5C[C@@H](C5(C)C)[C@]4(C)O3)[C@@H](C)O)cc2)CC1` [Compound 246] (X15-[Dab]TAK-{boroAla((+)-pinanediol)}): 64 µg/mL (≈ 71.5 µM), 23 µg/mL (≈ 25.7 µM), 290 nM and 55 nM.
On to `CCCCCCCCc1ccc(C(=O)N[C@@H](CCN)C(=O)N[C@H](C(=O)N[C@@H](C)C(=O)N[C@@H](CCCCN)C(=O)N[C@@H](C)B2OC3C[C@@H]4C[C@@H](C4(C)C)[C@]3(C)O2)[C@@H](C)O)cc1` (some centres unmarked) [Compound 232] ({Benzoyl(4-octyl)}-[Dab]TAK-X1), for which, in experiment [1], the “MIC (μg/mL) E. coli” value worked out at 0.25 µg/mL (≈ 0.298 µM). In experiment [2], the “MIC (μg/mL) S. aureus” value was found to be 0.31 µg/mL (≈ 0.369 µM). The values for the 50% inhibitory concentration (IC50) against S. aureus SPase and on E. coli SPase were 140 nM and 5 nM, respectively.
For `C[C@H](NC(=O)[C@H](CCCCN)NC(=O)[C@H](C)NC(=O)[C@@H](NC(=O)[C@H](CCN)NC(=O)c1ccc(-c2ccccc2C(F)(F)F)cc1)[C@@H](C)O)B1OC2C[C@@H]3C[C@@H](C3(C)C)[C@]2(C)O1` (some centres unmarked) [Compound 236] the same measures were 8 µg/mL (≈ 9.18 µM), 2 µg/mL (≈ 2.29 µM), 130 nM and 28 nM.
`CCCCc1ccc(-c2ccc(C(=O)NCCC(=O)N[C@@H](CCCCN)C(=O)N3CCC[C@H]3C(=O)N[C@@H](C)C(=O)N[C@@H](CC(N)=O)C(=O)N[C@@H](C)B3OC4C[C@@H]5C[C@@H](C5(C)C)[C@]4(C)O3)cc2)cc1` (some centres unmarked) [Compound 208] ({Biphenylcarbonyl(4'-Bu)-βAla}-KPAN-X1): the “MIC (μg/mL) E. coli” value in experiment [1] is 4 µg/mL (≈ 4.25 µM). Also, the “MIC (μg/mL) S. aureus” value in experiment [2] stood at 0.31 µg/mL (≈ 0.329 µM). For the same compound, the IC50 against S. aureus SPase worked out at 5.7 nM; against E. coli SPase, 20 nM.
For `CCCCN1CCC(c2ccc(C(=O)N[C@@H](CCN)C(=O)N[C@H](C(=O)N[C@@H](C)C(=O)N[C@@H](CCCCN)C(=O)N[C@@H](C)B3O[C@@H]4C[C@@H]5C[C@@H](C5(C)C)[C@]4(C)O3)[C@@H](C)O)cc2)CC1` [Compound 244] (X13-[Dab]TAK-{boroAla((+)-pinanediol)}) the same measures were 64 µg/mL (≈ 73.8 µM), 45 µg/mL (≈ 51.9 µM), 1100 nM and 350 nM.
For `CCCCc1ccc(-c2ccc(CNCCC[C@H](N)C(=O)N[C@H](C(=O)N[C@@H](C)C(=O)N[C@@H](CCCCN)C(=O)N[C@@H](C)B3OC4C[C@@H]5C[C@@H](C5(C)C)[C@]4(C)O3)[C@@H](C)O)cc2)cc1` (some centres unmarked) [Compound 274] the same measures were 16 µg/mL (≈ 18.6 µM), 0.13 µg/mL (≈ 0.151 µM), 35 nM and 1700 nM.
For `CCCCc1ccc(-c2ccc(C(=O)N[C@@H](CCN)C(=O)N[C@@H](Cc3ccc(O)c(O)c3)C(=O)N[C@@H](C)C(=O)N[C@@H](Cc3ccc(O)c(O)c3)C(=O)N[C@@H](C)B3OC4C[C@@H]5C[C@@H](C5(C)C)[C@]4(C)O3)cc2)cc1` (some centres unmarked) [Compound 189] ({Biphenylcarbonyl(4'-Bu)}-[Dab][Dopa]A[Dopa]-X1) the same measures were 64 µg/mL (≈ 64.7 µM), greater than 64 µg/mL, 7700 nM and 430 nM.
In the case of `CCCCc1ccc(-c2ccc(C(=O)N[C@H](CO)C(=O)N[C@H](C)C(=O)NCC(=O)N(C)[C@H](C(=O)N[C@@H](C)C(=O)N[C@@H](CC(N)=O)C(=O)N[C@@H](C)B3OC4C[C@@H]5C[C@@H](C5(C)C)[C@]4(C)O3)C(C)C)cc2)cc1` (some centres unmarked) [Compound 230] ({Biphenylcarbonyl(4'-Bu)}-[dS][dA]G[NMeV]AN-X1), the “MIC (μg/mL) E. coli” value in experiment [1] is 20 µg/mL (≈ 20.6 µM). In addition, the “MIC (μg/mL) S. aureus” value in experiment [2] is 2 µg/mL (≈ 2.06 µM). Also, the IC50 is 150 nM at S. aureus SPase and 390 nM against E. coli SPase.

Values taken from patent publication US9708368B2, “Linear peptide antibiotics” (priority 2012, dated 2017).
